Reference: patent publication US11198710B2, “Transgenic plant having herbicide resistance” (priority 2016, dated 2021)

Experiments:
ZmQ9ZP61 = experiment: Pyroxasulfone metabolizing activity based on fatty acid content in cultured rice cells; assay type: cell-based, maize; conditions: cultured rice cells with ZmQ9ZP61 gene; 10^−7M or 10^−6M pyroxasulfone, liquid culture 14 to 17 days
Method: (§1) The transgenic cultured rice cells thus prepared were used for liquid culture in the presence of pyroxasulfone. Pyroxasulfone was added to the liquid medium as an acetone solution. The final acetone concentration was 0.1%. When liquid culture was carried out, cultured rice cells transformed with KLB-279 (a plasmid comprising Act1p (rice actin 1 promoter)::sGFP::NOSt incorporated into the MCS of PalSelect R-4) were designated as the control samples. Liquid culture was carried out as described below.
(§2) A bag of mixed salts for Murashige-Skoog medium (MS inorganic salts), 1 ml of 10 mg/ml thiamin hydrochloride, 1 ml of 5 mg/ml nicotinic acid, 1 ml of 10 mg/ml pyridoxine hydrochloride, 1 ml of 2 mg/ml glycine, 1 ml of 0.2 mg/ml 2,4-D, 30 g of sucrose, and 1 ml of 50 mg/ml myo-inositol were added into a 1-liter beaker, a pH was adjusted to 5.7, and the volume was precisely adjusted to 1,000 nil with the addition of distilled water, followed by autoclave. After 0.05 ml of pyroxasulfone was added to a 200-ml erlenmeyer flask containing 50 ml of the liquid medium, about 0.5 g of the control cultured rice cells proliferated in a solid medium of the same composition as described above further supplemented with 3 g of gellan gum and 0.25 μM BS or about 0.5 g of the transgenic cultured rice cells prepared as described above were added to the liquid medium, and culture was carried out for 14 to 17 days. After the completion of culture, the liquid medium was removed, and cultured rice cells were recovered.
(§3) One month after the transformation, cultured rice cells comprising the GST genes introduced therein were selected with the use of 0.25 μM bispyribac sodium (BS). Subsequently, the fresh cultured rice cells proliferated in the selection medium were mass-cultured in a conical beaker for approximately 1 month and then used for liquid culture in a pyroxasulfone-containing medium. When conducting liquid culture, the concentration was adjusted to 10^−7M or 10^−6M, so that pyroxasulfone would influence the fatty acid content in the cultured rice cells (Y. Tanetani et al., Pestic. Biochem. Physiol., 95, 47-55, 2009). […]
(§4) Fatty acid was extracted using undecenoic acid (C11:1) as an internal standard. As analytical standards, Supelco FAME mix containing C14:0, C16:0, C16:1, C18:0, C18:1, C18:2, C18:3, C20:0, C22:0, C22:1, and C24:0 and other fatty acid methyl esters (C11:1, C15:0, C20:1, and C26:0) were used, and calibration curves thereof were prepared, followed by quantification. […] Quantitative and qualitative analyses were carried out as methyl esters, although fatty acid methyl esters were converted into fatty acids at the time of quantitative analysis. […]

ZmB6T8R4 = experiment: as above; assay type: cell-based, maize; conditions: cultured rice cells with ZmB6T8R4 gene; 10^−7M or 10^−6M pyroxasulfone, liquid culture 14 to 17 days
Method: as §1, §2, §3, §4

ZmM16901 = biological target: T1, ZmM16901 (Zea mays, UniProt P12653); experiment: as above; assay type: cell-based, maize; conditions: cultured rice cells with ZmM16901 gene; 10^−7M or 10^−6M pyroxasulfone, liquid culture 14 to 17 days
T1 construct: expressed in transfected cells; host or cells: cultured rice cells (Agrobacterium EHA105, PalSelect R-4-GST)
T1 sequence (P12653 whole entry): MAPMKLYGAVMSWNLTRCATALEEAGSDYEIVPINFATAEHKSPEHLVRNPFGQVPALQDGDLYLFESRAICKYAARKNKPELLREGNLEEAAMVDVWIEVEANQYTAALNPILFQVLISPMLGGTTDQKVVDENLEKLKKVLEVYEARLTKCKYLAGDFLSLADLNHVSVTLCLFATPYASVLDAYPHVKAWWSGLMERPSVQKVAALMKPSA
Method: as §1, §2, §3, §4

ZmY12862 = experiment: as above; assay type: cell-based, maize; conditions: cultured rice cells with ZmY12862 gene; 10^−7M or 10^−6M pyroxasulfone, liquid culture 14 to 17 days
Method: as §1, §2, §3, §4

[1] = test system: rice plants comprising the TaQ8GTC1-R gene introduced therein; experiment: Sensitivity of rice plants comprising the TaQ8GTC1-R gene to pyroxasulfone, gellan gum medium; assay type: in vivo; conditions: strains KLB-872#3-11 and KLB-872#2-4; 10^−8 to 10^−5M
Method: Pyroxasulfone resistance of 2 rice plants strains (KLB-872#3-11 and KLB-872#2-4) was examined via the germination growth inhibitory test using a gellan gum medium. At the outset, Hoagland's mix and 3 g of gellan gum were suspended in 1 liter of distilled water and thoroughly dissolved therein by heating in a microwave. A fraction of the resultant (15 ml) was poured into a tubular bottle before it was cooled (30 ml was injected into the plate). Pyroxasulfone (acetone solution) was simultaneously added at the time of filling of gellan gum medium into the tubular bottle or plate, followed by thorough mixing. Rice hulls were soaked in a 50-fold diluted sodium hypochlorite solution (antiformin) (Wako) for approximately 20 minutes and then thoroughly washed with water. Sterilized seeds were soaked in distilled water and allowed to stand at 27° C. for germination (for approximately 2 days). […] Thereafter, rice seeds that were determined to have BS resistance with the use of root elongation as the indicator were transferred to gellan gum media containing pyroxasulfone (tubal bottles) at the final concentrations of 10^−8, 10^−7, 10^−6, and 10^−5M, respectively. […] These samples were grown at 27° C. under fluorescent light illumination (14 hours of a light period and 10 hours of a dark period) for 4 to 5 days, and the plant heights were then measured. […]

Cn1nc(C(F)(F)F)c(CS(=O)(=O)C2=NOC(C)(C)C2)c1OC(F)F [Pyroxasulfone, 3-[5-(difluoromethoxy)-1-methyl-3-(trifluoromethyl)pyrazol-4-ylmethylsulfonyl]-4,5-dihydro-5,5-dimethyl-1,2-oxazole]
pyroxasulfone metabolizing activity (C15:0 and VLCFA contents) (ZmQ9ZP61): no pyroxasulfone metabolizing activity | pyroxasulfone metabolizing activity (C15:0 and VLCFA contents) (ZmB6T8R4): no pyroxasulfone metabolizing activity | pyroxasulfone metabolizing activity (C15:0 and VLCFA contents) (ZmM16901): no pyroxasulfone metabolizing activity | pyroxasulfone metabolizing activity (C15:0 and VLCFA contents) (ZmY12862): no pyroxasulfone metabolizing activity | sensitivity to pyroxasulfone [1]: sensitivity equivalent to that of wild-type plants
